Where two headings read alike, the source gives them in different places.
Experiments:
[1] = room temperature; cited from earlier work
[2] = format: physicochemical; conditions: nonylphenol
Experimental: From the group of the phenols as defined above and substituted by aliphatic radicals, those are advantageously selected for the use according to the invention, whose melting point is below 90° C., preferably below 50° C. and especially below 20°-30° C. A low melting point of the phenol derivatives used allows the process to be carried out at correspondingly low temperatures, which has a very favorable effect on the partition coefficient KD. KD is defined as follows: [formula]
The phases were then allowed to settle and were separated, and the concentration of NMP in the two phases was determined.
After the phases had been allowed to settle, these were separated, and the concentration of NMP in the two phases was determined.
Thereupon, the phases were allowed to settle and were separated, and the concentration of NMP in the two phases was determined.
[…] After the phases had been allowed to settle, these were separated, and the concentration of NMP in the two phases was determined.

[3] = Example 1a, feed 35% NMP, phase volume ratio 1:4, room temperature
[4] = Example 1b, feed 35% NMP, phase volume ratio 1:6, room temperature
[5] = Example 1c, feed 35% NMP, phase volume ratio 1:10, room temperature
[6] = Example 1e, feed 33% NMP, phase ratio 1:2, 70° C.
[7] = Example 1f, feed 33% NMP, phase volume ratio 1:10, 70° C.
[8] = Example 1d, feed 9% NMP, phase volume ratio 1:1, room temperature

Cc1cc(C)cc(O)c1 [3,5-dimethylphenol]
solubility in water [1]: 0.49 % by weight

Cc1cccc(O)c1 [m-cresol]
solubility in water [1]: 2.3 % by weight

CN1CCCC1=O [NMP, N-methyl-2-pyrrolidone]
Aqueous raffinate phase (% by weight of NMP) [2, 3]: 0.75 % by weight | Organic extract phase (% by weight of NMP) [2, 3]: 8.2 % by weight | Aqueous raffinate phase (% by weight of NMP) [2, 4]: 0.30 % by weight | Organic extract phase (% by weight of NMP) [2, 4]: 5.8 % by weight | Aqueous raffinate phase (% by weight of NMP) [2, 5]: 0.12 % by weight | Organic extract phase (% by weight of NMP) [2, 5]: 3.4 % by weight | Aqueous raffinate phase (% by weight of NMP) [2, 6]: 9.0 % by weight | Organic extract phase (% by weight of NMP) [2, 6]: 12.4 % by weight | Aqueous raffinate phase (% by weight of NMP) [2, 7]: 1.0 % by weight | Organic extract phase (% by weight of NMP) [2, 7]: 3.4 % by weight | Aqueous raffinate phase (% by weight of NMP) [2, 8]: 0.64 % by weight | Organic extract phase (% by weight of NMP) [2, 8]: 8.3 % by weight
